Where two headings read alike, the source gives them in different places.
Assays:
[1] = test system: FLOD-G derived from Gibberella fujikuroi (IFO No. 6605); assay: Effect of metal ion on the activity of FLOD-G; assay type: biochemical
Protocol: Then, the enzyme activity was evaluated.

[2] = test system: FLOD-S derived from S-1F4 strain; assay: Effect of metal ion on the activity of FLOD-S; assay type: biochemical, Fusarium oxysporum S-1F4
Protocol: After 5 minutes of incubation at 30° C., the enzyme activity was evaluated.

[3] = test system: FLOD-G derived from Gibberella fujikuroi; assay: Effect of various inhibitors on the activity of FLOD-G; stabilization; assay type: biochemical
Protocol: The inhibitory effect of various substances was tested in a manner substantially analogous to that described in (1) above. The stabilization effect was examined by dialyzing overnight against 50 mM Tris-HCl buffer (pH 8.5) containing 2 mM DTT and measuring the activity.

[4] = test system: FLOD-S derived from S-1F4 strain; assay: Effect of various inhibitors on activity of FLOD-S; stabilization; assay type: biochemical, Fusarium oxysporum S-1F4
Protocol: In the present test, the final concentration of PCMB (parachloro mercuric benzoate) is 0.1 mM while that of others 1 mM. The stabilization effect was examined by dialyzing the mixture overnight against 50 mM Tris-HCl buffer (pH 8.5) containing 2 mM dithiothreitol (DTT) and measuring the enzyme activity.

[5] = test system: FLOD-S derived from S-1F4 strain; assay: Substrate specificity of FLOD-S (hydrogen peroxide generation)
Protocol: The partially purified enzyme was prepared in the following manner. Thus, S-1F4 strain was grown in a GL brown-colored medium for 24 hours and the culture was filtered with suction to harvest mycelia. The mycelia were then washed, suspended in 0.1 M Tris-HCl buffer (pH 8.5), ground by means of Dino-Mill and centrifuged. The centrifugal supernatant is fractionated with ammonium sulfate and purified using DEAE-Sephacel ion-exchange chromatography to obtain the partially purified enzyme. The purified enzyme was prepared according to the method described in Example 1 below.
A 50 mM FZL solution was prepared by dissolving FZL previously obtained in distilled water. To a mixture of 100 μl of 45 mM 4-aminoantipyrine, 100 μl of peroxidase (60 U/ml), 100 μl of 60 mM phenol, 1 ml of 0.1 M Tris-HCl buffer (pH 8.0) and 50 μl of enzyme solution was added distilled water to give a total volume of 2.9 ml and the solution was allowed to equilibrate at 30° C. After the addition of 100 μl of 50 mM FZl solution, the time-course of absorbance at 505 nm was measured. The amount (μmol) of hydrogen peroxide produced in one minute was calculated on the basis of a molar absorption coefficient (5.16×10^3 M^-1 cm^-1) of a quinone pigment produced. The resultant numerical value was taken as a unit(U) of enzyme activity.

[6] = test system: FLOD-G derived from Gibberella fujikuroi; assay: Substrate specificity of FLOD-G
Protocol: To a mixture of 100 μl of 45 mM 4-aminoantipyrine, 100 μl of peroxidase solution (60 U/ml), 100 μl of 60 mM phenol, 1 ml of 0.1 M Tris-HCl buffer (pH 8.0) and 50 μl of enzyme solution, was added distilled water to give a total volume of 2.95 ml and the solution was allowed to be equilibrated at 30° C. After the addition of 50 μl of 100 mM FZL solution, the time-course of absorbance at 505 nm was measured. The amount (μmol) of hydrogen peroxide produced in one minute was calculated on the basis of a molar absorption coefficient (5.16×10^3 M^-1 cm^-1) of a quinone pigment produced. The resultant numerical value was taken as a unit (U) of enzyme activity.

[7] = metal 1 mM, 0.1 M Tris-HCl pH 8.0, pre-incubated 5 minutes at 30° C., None = 100
[8] = metal 1 mM, 0.1 M Tris-HCl pH 8.0, 5 minutes at 30° C., None = 100
[9] = inhibitor (mM), concentration not given, None = 100
[10] = partially purified FLOD-S, substrate 0.018%

| Molecule | Specific activity (%) [1, 7] [%] | Specific activity (%) [2, 8] [%] | Specific activity (%) ([4]; reagent 1 mM, None = 100) | Specific activity (%) [3, 9] [%] | other results |
| --- | --- | --- | --- | --- | --- |
| O=S(=O)([O-])[O-].[Co+2] [CoSO4] | 15 | 42 | – | – | Inhibition of FLOD-G activity by metal ion ([1]; metal 1 mM): inhibited |
| O[C@H](CS)[C@H](O)CS (racemic) [dithiothreitol] | – | – | – | – | Stabilization of FLOD-G ([3]; dialysis overnight against 50 mM Tris-HCl buffer (pH 8.5) containing 2 mM DTT): stabilized; Stabilization of FLOD-S ([4]; pH 8.5): stabilized |
| O=S(=O)([O-])[O-].[Fe+2] [FeSO4] | 74 | 97 | – | – | – |
| [Cl-].[Na+] [NaCl] | – | – | – | – | Specific activity (%) ([1]; pH 8): 97%; Specific activity (%) ([2]; pH 8): 107% |
| [Cl-].[Rb+] [RbCl] | 97 | 103 | – | – | – |
| [Cl][Fe]([Cl])[Cl] [FeCl3] | 16 | 67 | – | – | Inhibition of FLOD-G activity by metal ion ([1]; metal 1 mM): inhibited |
| C#CCN(C)CCCOc1ccc(Cl)cc1Cl [Clorgyline] | – | – | 132 | – | – |
| [Cl-].[Li+] [LiCl] | 96 | 100 | – | – | – |
| c1ccc(-c2ccccn2)nc1 [α,α'-Dipyridyl] | – | – | 106 | 78 | – |
| O=C(O)c1cc[c]([Hg][Cl])cc1 [PCMB, parachloro mercuric benzoate] | – | – | – | – | Inhibition of FLOD-G activity by inhibitor [3]: strongly inhibited; Specific activity (%) ([3]; inhibitor 0.1 mM, None = 100): 51%; Inhibition of FLOD-S activity by inhibitor ([4]; PCMB 0.1 mM, others 1 mM): completely inhibited; Specific activity (%) ([4]; reagent 0.1 mM, None = 100): 0% |
| O=[N+]([O-])[O-].[Ag+] [AgNO3] | 0 | 0 | – | – | Inhibition of FLOD-G activity by metal ion ([1]; metal 1 mM): completely inhibited; Inhibition of FLOD-S activity by metal ion ([2]; metal 1 mM): completely inhibited |
| [Ba+2].[Cl-].[Cl-] [BaCl2] | 103 | 60 | – | – | – |
| O=C(O)CN(CCN(CC(=O)O)CC(=O)O)CC(=O)O [EDTA] | – | – | – | – | Specific activity (%) [3]: 81% |
| [Ca+2].[Cl-].[Cl-] [CaCl2] | 97 | 77 | – | – | – |
| O=S(=O)([O-])[O-].[Zn+2] [ZnSO4] | 33 | 0 | – | – | Inhibition of FLOD-G activity by metal ion ([1]; metal 1 mM): inhibited; Inhibition of FLOD-S activity by metal ion ([2]; metal 1 mM): completely inhibited |
| NNC(N)=O [Semicarbazide] | – | – | 103 | 77 | – |
| c1cnc2c(c1)ccc1cccnc12 [O-Phenanthrolene] | – | – | 103 | 78 | – |

| Molecule | Specific activity (%) [1, 7] [%] | Specific activity (%) [2, 8] [%] | Specific activity (%) ([4]; reagent 1 mM, None = 100) | Specific activity (%) [3, 9] [%] | other results |
| --- | --- | --- | --- | --- | --- |
| NN [Hydrazine] | – | – | 13 | 14 | Inhibition of FLOD-G activity by inhibitor [3]: strongly inhibited; Inhibition of FLOD-S activity by inhibitor [4]: inhibited |
| [Cl-].[Cs+] [CsCl2] | 97 | 102 | – | – | – |
| O=C(O)c1cc(SSc2ccc([N+](=O)[O-])c(C(=O)O)c2)ccc1[N+](=O)[O-] [5,5',-Dithiobis(2-nitrobenzoic acid)] | – | – | 95 | 76 | – |
| [Cl][Mn][Cl] [MnCl2] | 115 | 154 | – | – | – |
| NO [Hydroxylamine] | – | – | 21 | 16 | Inhibition of FLOD-G activity by inhibitor [3]: strongly inhibited |
| NNc1ccccc1 [Phenylhydrazine] | – | – | 2.6 | 13 | Inhibition of FLOD-G activity by inhibitor [3]: strongly inhibited; Inhibition of FLOD-S activity by inhibitor [4]: inhibited |
| O=C(N[C@@H](CCCCNCC(=O)[C@@H](O)[C@H](O)[C@H](O)CO)C(=O)O)OCc1ccccc1 [Fructosyl N^α -Z-lysine, fructosyl N^α -Z-lysine] | – | – | – | – | Specificity of FLOD-S to substrate [5]: remarkably specific |
| Fructosyl poly-L-lysine | – | – | – | – | Specificity of FLOD-S to substrate [5]: specific; Activity [5, 10]: 0.0738 U/ml; Specific activity (%) [5, 10]: 2.3%; Specific activity (%) ([5]; purified FLOD-S, substrate 0.02%): 2.3%; Activity of FLOD-G on substrate [6]: active; Specific activity (%) ([6]; FLOD-G, substrate 0.017%): 1.0% |
| N=C(N)NN [Aminoguanidine] | – | – | 66 | 50 | Inhibition of FLOD-G activity by inhibitor [3]: strongly inhibited |
| O=C(O)CI [Iodoacetic acid] | – | – | – | – | Specific activity (%) [3]: 77%; Specific activity (%) [4]: 102% |
| [Cl-].[K+] [KCl] | 98 | 104 | – | – | – |
| [Cl][Cu][Cl] [CuCl2] | 2 | 0 | – | – | Inhibition of FLOD-G activity by metal ion ([1]; metal 1 mM): inhibited; Inhibition of FLOD-S activity by metal ion ([2]; metal 1 mM): completely inhibited |
| C#CCN(C)C(C)Cc1ccccc1 (stereo not shown) [Deprenyl] | – | – | 102 | 81 | – |
| [N-]=[N+]=[N-] [Sodium azide] | – | – | 101 | 78 | – |
| [Cl-].[Cl-].[Mg+2] [MgCl2] | 94 | 75 | – | – | – |
| [Cl][Hg][Cl] [HgCl2] | 25 | 0 | – | – | Inhibition of FLOD-G activity by metal ion ([1]; metal 1 mM): inhibited; Inhibition of FLOD-S activity by metal ion ([2]; metal 1 mM): completely inhibited |

— US5972671A, “Fructosyl amino acid oxidase and process for producing the same” (Kyoto Daiichi Kagaku Co., Ltd., priority 1994, dated 1999)
